Data reported in US20200237700A1, “METHODS OF REDUCING OR PREVENTING OXIDATION OF SMALL DENSE LDL OR MEMBRANE POLYUNSATURATED FATTY ACIDS” (Amarin Pharmaceuticals Ireland Limited, priority 2015, published 2020).

Test system: unfractionated LDL isolated from human plasma
Assay: Copper-induced oxidation of unfractionated LDL, TBARS (Example 6)
Format: biochemical
Conditions: 10.0 μM; unfractionated LDL
Description: All test compounds were further diluted in ethanol or aqueous buffer as needed. Venous blood was collected from healthy volunteers into vacutainer tubes containing sodium EDTA. […] Plasma and lipoprotein fractions were maintained at 4° C. and protected from excessive exposure to light. Prior to oxidation experiments, EDTA was removed from the lipoprotein fraction using PD-10 desalting columns (GE Healthcare, Piscataway N.J.). After equilibration of the column with phosphate buffered saline (PBS), 2.5 mL of the lipoprotein fraction was loaded on the column and the flow-through discarded. The lipoprotein was then eluted with 3 mL of PBS. The LDL fractions were further diluted with PBS to obtain a 100 μg/mL apoB100 concentration. […] Differences between groups were analyzed using the two-tailed, Student's t-test (for comparisons between only two groups) or ANOVA followed by Dunnett or Student-Newman-Keuls multiple comparisons post-hoc analysis (for comparisons between three or more groups).

Structure (SMILES): CC/C=C\C/C=C\C/C=C\C/C=C\C/C=C\CCCC(=O)O [EPA, cis-5,8,11,14,17-eicosapentaenoic acid]
- reduced TBARS levels: 17%
